Experimental data from ChEMBL document CHEMBL1201862, “PubChem BioAssay data set” (2004).
Activity calls are given as the source filed them.

Legend:
Cytochrome P450 2C19 = Cytochrome P450 2C19 (Homo sapiens, UniProt P33261); assay: Cytochrome panel assay with activity outcomes. Panel member name: p450-cyp2c19 Compounds with AC50 equal or less than 10 uM are considered active; format: functional; conditions: read-out: AC50
Cytochrome P450 2C9 = Cytochrome P450 2C9 (Homo sapiens, UniProt P11712)
[1] = Luminescence Cell-Based Dose Confirmation HTS to Identify Inhibitors of Platelet Dense Granule Release. [Related pubchem assays: 1663 (Primary HTS), 1678 (Summary of Project)]; format: functional
[2] = biological target: Luciferin 4-monooxygenase (Photinus pyralis, UniProt P08659); assay: inhibition of purified Photinus pyralis luciferase – biochemical, luminescence, dose response (AID 1891)
Chain of Luciferin 4-monooxygenase (P08659 whole entry): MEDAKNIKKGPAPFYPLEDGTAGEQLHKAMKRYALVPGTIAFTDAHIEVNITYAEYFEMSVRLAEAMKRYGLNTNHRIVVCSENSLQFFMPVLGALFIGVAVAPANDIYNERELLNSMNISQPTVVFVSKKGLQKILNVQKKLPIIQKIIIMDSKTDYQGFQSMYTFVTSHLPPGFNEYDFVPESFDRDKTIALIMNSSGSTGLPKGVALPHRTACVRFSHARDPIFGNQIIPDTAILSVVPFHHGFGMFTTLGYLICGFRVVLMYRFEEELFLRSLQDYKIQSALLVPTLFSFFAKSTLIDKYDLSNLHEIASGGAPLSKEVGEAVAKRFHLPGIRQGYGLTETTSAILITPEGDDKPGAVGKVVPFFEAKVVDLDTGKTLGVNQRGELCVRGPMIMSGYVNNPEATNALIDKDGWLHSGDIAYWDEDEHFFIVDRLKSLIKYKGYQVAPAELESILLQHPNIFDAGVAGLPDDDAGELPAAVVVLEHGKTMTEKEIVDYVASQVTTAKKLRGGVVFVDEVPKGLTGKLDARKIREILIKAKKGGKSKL

Cytochrome P450 2D6 = Cytochrome P450 2D6 (Homo sapiens, UniProt P10635);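 also: CYP2D6 member of a cytochrome P450 panel assay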
Chain of Cytochrome P450 2D6 (P10635 whole entry): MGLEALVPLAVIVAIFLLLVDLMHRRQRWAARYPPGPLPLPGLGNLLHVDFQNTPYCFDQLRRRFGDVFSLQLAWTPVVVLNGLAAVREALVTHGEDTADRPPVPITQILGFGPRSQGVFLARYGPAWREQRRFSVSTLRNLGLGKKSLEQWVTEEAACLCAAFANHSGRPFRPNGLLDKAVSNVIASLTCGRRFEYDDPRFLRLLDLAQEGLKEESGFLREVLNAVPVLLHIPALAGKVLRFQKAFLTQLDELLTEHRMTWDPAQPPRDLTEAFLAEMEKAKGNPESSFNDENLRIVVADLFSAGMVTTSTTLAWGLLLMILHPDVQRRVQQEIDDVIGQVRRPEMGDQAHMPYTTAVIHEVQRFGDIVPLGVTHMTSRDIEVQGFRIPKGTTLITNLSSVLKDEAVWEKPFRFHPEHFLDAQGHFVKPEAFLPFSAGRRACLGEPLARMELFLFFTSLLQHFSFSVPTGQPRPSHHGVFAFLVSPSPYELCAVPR

Paired box protein Pax-8 = Paired box protein Pax-8 (Homo sapiens, UniProt Q06710); assay: PAX8 transcriptional activity inhibition in RMG-I – RMG-I cells, luciferase, cherry-pick, dose response (AID 687027); format: functional, cell-based;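 also: luciferase reporter driven by Pax8 target thyroperoxidase promoter measured by SteadyGlo luminescence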
Chain of Paired box protein Pax-8 (Q06710 whole entry): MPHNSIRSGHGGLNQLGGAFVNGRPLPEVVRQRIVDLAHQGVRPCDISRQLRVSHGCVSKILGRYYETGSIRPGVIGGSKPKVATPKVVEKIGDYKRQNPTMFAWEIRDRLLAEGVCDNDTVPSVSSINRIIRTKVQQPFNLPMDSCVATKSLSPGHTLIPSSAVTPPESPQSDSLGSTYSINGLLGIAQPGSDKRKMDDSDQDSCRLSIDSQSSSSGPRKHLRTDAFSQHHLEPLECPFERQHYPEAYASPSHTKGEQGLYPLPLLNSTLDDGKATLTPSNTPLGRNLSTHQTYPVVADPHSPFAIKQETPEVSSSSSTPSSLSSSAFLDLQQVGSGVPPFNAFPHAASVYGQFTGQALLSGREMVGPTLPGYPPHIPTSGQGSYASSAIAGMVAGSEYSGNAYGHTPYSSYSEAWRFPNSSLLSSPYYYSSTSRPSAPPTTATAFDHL

[3] = biological target: T1, Heat shock factor protein 1 (Mus musculus, UniProt P38532); assay: enhancement of HSF1-driven luciferase signal – cell-based, NIH3T3, luminescence, dose retest, confirmation (AID 435004); format: functional;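 also: stress induced by proteasome inhibitor MG132 added 30 min after compound; luciferase reporter driven by HSF1 response element in NIH3T3 cells; actives raise luminescence as potentiators of the MG132 stress response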
T1 sequence (P38532 whole entry): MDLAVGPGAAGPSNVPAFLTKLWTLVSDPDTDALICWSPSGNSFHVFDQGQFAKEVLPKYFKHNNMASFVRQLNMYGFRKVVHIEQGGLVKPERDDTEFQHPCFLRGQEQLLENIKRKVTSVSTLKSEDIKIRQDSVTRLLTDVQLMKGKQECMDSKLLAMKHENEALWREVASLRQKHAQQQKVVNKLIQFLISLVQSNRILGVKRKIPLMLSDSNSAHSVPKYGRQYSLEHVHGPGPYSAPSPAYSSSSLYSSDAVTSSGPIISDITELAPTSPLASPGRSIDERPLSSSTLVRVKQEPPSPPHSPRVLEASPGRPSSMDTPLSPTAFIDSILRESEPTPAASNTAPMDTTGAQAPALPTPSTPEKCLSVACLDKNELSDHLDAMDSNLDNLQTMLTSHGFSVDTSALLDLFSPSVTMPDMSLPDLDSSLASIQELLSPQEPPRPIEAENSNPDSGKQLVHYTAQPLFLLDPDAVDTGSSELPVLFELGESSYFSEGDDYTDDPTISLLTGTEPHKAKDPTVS

Coagulation factor XII = biological target: T2, Coagulation factor XII (Homo sapiens, UniProt P00748); format: functional;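 also: activated factor XIIa alpha cleaving a fluorogenic AMC peptide substrate; inhibitor potency from loss of enzyme activity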
T2 sequence (P00748 whole entry): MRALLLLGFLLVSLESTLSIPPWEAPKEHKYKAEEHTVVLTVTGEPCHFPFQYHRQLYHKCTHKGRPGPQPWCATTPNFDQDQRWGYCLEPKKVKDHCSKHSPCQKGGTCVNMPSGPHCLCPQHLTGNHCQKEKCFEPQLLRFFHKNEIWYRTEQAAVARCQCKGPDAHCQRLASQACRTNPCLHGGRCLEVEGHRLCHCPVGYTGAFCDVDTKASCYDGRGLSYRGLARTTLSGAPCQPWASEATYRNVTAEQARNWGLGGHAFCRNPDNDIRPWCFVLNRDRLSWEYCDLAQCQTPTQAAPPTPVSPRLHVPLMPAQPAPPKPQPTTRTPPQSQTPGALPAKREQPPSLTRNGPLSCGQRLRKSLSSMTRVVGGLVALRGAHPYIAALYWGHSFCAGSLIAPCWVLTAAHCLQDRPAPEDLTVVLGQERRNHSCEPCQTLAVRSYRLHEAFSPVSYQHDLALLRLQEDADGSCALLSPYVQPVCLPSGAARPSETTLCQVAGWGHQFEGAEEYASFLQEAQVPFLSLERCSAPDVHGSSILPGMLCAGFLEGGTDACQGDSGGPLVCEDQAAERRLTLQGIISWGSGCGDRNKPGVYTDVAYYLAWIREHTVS

Cytochrome P450 3A4 = Cytochrome P450 3A4 (Homo sapiens, UniProt P08684);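 also: CYP3A4 tested as one member of a cytochrome P450 panel screen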
Chain of Cytochrome P450 3A4 (P08684 whole entry): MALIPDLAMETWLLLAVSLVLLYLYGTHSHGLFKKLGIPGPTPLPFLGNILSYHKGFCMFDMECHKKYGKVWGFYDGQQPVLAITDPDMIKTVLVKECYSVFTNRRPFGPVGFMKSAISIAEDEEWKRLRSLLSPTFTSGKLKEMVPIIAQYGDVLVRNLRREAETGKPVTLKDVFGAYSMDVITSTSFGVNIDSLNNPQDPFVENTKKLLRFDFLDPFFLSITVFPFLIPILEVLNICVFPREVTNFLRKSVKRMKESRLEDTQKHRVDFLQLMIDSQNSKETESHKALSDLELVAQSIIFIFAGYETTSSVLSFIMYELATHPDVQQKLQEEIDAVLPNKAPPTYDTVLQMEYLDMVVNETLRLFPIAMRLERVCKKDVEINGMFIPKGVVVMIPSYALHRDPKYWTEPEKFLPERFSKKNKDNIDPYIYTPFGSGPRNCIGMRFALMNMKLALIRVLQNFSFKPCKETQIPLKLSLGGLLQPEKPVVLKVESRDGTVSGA

[4] = viability of PTEN-deleted HCT116 cells – cell-based, HCT116 PTEN knockout, dose response (AID 1047); format: functional;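 also: HCT116 colon tumor cells with PTEN knocked out; cells exposed to compound for 60 hours before readout; potency for loss of cell viability measured by luminescence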
INS1 = assay: INS-1E survival protection against cytokine death – cell-based, luminescence, retest, dose response (AID 449756); format: functional; conditions: Rattus norvegicus;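 also: cell death triggered by IL-1 beta plus TNF-alpha plus IFN-gamma mixture; protective hits raise ATP signal compared with cytokine alone wells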
[5] = biological target: T3, Replicative DNA helicase DnaB (Mycobacterium tuberculosis, UniProt P9WMR3); assay: DnaB intein splicing inhibitors, dose response, biochemical, cell-free fluorescence (AID 449749); format: functional
T3 sequence (P9WMR3 whole entry): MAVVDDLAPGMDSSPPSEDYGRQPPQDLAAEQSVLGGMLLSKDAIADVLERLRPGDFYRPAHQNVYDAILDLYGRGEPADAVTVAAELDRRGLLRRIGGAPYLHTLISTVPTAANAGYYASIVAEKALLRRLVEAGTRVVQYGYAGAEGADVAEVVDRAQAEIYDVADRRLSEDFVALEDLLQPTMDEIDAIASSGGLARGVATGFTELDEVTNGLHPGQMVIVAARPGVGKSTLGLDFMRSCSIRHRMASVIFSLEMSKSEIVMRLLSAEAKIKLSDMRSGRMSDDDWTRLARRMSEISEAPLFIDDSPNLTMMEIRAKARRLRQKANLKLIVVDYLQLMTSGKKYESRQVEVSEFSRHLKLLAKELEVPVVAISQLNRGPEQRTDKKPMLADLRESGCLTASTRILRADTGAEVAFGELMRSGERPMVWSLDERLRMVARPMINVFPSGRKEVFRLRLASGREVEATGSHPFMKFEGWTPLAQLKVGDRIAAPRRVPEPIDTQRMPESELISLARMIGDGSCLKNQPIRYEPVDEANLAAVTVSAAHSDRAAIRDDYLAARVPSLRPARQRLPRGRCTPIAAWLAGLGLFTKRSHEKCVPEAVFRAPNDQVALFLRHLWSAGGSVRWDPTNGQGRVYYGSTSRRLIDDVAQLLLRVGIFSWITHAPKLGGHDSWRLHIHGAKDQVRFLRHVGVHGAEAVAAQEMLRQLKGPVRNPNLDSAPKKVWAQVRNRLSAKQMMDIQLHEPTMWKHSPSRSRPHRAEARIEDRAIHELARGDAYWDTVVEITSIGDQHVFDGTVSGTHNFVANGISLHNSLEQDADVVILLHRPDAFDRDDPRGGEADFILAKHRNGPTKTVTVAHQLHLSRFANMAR

Protein RecA = biological target: T4, Protein RecA (Mycobacterium tuberculosis, UniProt P9WHJ3); assay: Fluorescence Cell-Free Homogeneous Dose Retest to Identify Inhibitors of RecA-Intein Splicing Activity. [Related pubchem assays (depositor defined):AID2097, AID2223, AID489010, AID492950]; format: functional
T4 sequence (P9WHJ3 whole entry): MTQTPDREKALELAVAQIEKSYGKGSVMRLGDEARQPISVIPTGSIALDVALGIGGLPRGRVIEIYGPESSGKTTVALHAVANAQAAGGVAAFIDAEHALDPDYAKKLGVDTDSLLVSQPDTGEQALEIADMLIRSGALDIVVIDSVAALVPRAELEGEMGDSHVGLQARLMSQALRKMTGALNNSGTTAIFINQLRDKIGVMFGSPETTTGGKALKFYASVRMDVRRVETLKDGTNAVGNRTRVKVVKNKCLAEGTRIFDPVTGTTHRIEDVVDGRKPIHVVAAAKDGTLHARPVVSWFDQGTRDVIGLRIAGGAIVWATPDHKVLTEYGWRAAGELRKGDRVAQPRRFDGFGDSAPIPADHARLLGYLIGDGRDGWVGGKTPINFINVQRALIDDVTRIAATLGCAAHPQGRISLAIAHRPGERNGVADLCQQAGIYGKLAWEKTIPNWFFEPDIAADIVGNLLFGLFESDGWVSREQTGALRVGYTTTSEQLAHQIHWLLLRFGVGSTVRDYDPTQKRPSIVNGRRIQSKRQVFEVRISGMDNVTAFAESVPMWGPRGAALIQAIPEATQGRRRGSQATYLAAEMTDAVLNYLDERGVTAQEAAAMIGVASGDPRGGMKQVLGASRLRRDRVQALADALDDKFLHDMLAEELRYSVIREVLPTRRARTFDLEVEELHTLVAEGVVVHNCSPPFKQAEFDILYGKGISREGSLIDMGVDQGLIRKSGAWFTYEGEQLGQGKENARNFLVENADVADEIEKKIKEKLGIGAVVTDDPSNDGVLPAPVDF

Chain of Cytochrome P450 2C19 (P33261 whole entry): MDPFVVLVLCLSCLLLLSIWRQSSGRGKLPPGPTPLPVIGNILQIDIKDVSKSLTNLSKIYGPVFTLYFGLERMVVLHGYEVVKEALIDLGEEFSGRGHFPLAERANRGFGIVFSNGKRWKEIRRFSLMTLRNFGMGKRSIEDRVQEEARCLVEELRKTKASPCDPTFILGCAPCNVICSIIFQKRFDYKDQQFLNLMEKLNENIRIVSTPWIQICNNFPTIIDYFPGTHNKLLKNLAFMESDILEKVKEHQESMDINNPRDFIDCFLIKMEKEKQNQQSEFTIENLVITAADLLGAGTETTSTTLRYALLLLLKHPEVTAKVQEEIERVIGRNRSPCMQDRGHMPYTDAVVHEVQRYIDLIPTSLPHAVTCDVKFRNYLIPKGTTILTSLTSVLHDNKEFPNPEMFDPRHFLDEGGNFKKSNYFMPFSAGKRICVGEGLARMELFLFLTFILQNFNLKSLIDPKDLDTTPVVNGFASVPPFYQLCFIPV
Chain of Cytochrome P450 2C9 (P11712 whole entry): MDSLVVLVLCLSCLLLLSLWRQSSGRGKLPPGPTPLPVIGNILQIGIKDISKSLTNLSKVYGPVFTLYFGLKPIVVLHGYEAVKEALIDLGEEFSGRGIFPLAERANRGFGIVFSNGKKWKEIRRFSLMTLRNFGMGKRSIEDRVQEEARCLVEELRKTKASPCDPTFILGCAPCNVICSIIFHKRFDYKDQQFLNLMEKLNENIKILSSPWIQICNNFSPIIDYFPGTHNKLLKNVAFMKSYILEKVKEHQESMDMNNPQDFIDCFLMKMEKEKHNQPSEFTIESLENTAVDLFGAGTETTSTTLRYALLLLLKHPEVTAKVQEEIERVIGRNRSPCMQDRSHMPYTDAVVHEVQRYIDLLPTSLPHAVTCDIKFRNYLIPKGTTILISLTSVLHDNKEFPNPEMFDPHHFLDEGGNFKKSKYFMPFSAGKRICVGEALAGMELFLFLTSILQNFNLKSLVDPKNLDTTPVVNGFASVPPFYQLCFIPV

With `CN(C)c1ccc(-c2nc(N(C)C)c3ccccc3n2)cc1` the AC50 (Cytochrome P450 2C19) was 39.8 µM (inconclusive) and the AC50 (Cytochrome P450 2C9) was “inconclusive”.

With `Cc1cc(C(=O)CC#N)c(C)n1CC(F)(F)F` the AC50 (Cytochrome P450 2C19) was 22.4 µM (inconclusive) and the AC50 (Cytochrome P450 2C9) was “inconclusive”.

In the case of `O=C(CN(c1cccc([N+](=O)[O-])c1)S(=O)(=O)c1ccccc1)NCc1ccccc1`, the EC50 [1] is reported as 46.7 µM (active) and the EC50 [2] is reported as > 112 µM (not active).

In the case of `COCCNc1cc(-c2ccccc2CN(C)C)ncn1`, the AC50 (Cytochrome P450 2C9) is reported as “inconclusive” and the AC50 (Cytochrome P450 2D6) is reported as 31.6 µM (inconclusive).

With `C[C@H]1CCCCO[C@H](CN(C)C(=O)Nc2ccc(C(F)(F)F)cc2)[C@@H](C)CN([C@@H](C)CO)C(=O)c2cc(NC(=O)c3ccncc3)ccc2O1` the AC50 (Paired box protein Pax-8) was 17.1 µM (active).

With `O=C(CF)NC(NC(S)=Nc1ccccc1O)C(Cl)(Cl)Cl` (centres undefined) the EC50 [3] was > 260 µM (inactive).

In the case of `COc1ccccc1NC(=O)c1ccc(-n2cccn2)nc1`, the AC50 (Cytochrome P450 2C19) is reported as 25.1 µM (inconclusive) and the AC50 (Cytochrome P450 2C9) is reported as “inconclusive”.

For `CCC1CCCN1Cn1cnc2c3cc(Cl)ccc3nc-2c1O` (centres undefined), the EC50 [1] was 48.3 µM (active) and the EC50 [2] was > 112 µM (not active).

For `Nc1ccccc1Oc1ncc(C(F)(F)F)cc1Cl`, the AC50 (Cytochrome P450 2C9) was “inconclusive”.

With `Cc1nc(O)nc(O)c1/C=N/NC(=O)[C@@H](N)CC(C)C` the IC50 (Coagulation factor XII) was > 50 µM (inactive).

For `Cn1nnnc1SCCNC/C=C/c1ccccc1`, the EC50 [3] was > 260 µM (inactive).

In the case of `O=C(CS(=O)(=O)c1cn(Cc2ccc(Cl)cc2)c2ccccc12)N1CCOCC1`, the IC50 (Coagulation factor XII) is reported as > 50 µM (inactive).

For `Cc1ccc2c(c1)N(CCC(=O)NCC1CCCO1)C(=O)CO2` (centres undefined), the AC50 (Cytochrome P450 2C9) was “inconclusive” and the AC50 (Cytochrome P450 3A4) was 25.1 µM (inconclusive).

For `O=C(Nc1ccccc1C(=O)N/N=C/c1ccco1)c1ccc(F)cc1`, the EC50 [1] was 10.4 µM (active) and the EC50 [2] was 0.295 µM (active).

In the case of `Cc1csc(NC(=O)C(CC(C)C)NS(=O)(=O)c2ccc3c(c2)oc(=O)n3C)n1` (centres undefined), the IC50 (Coagulation factor XII) is reported as > 50 µM (inactive).

For `NC(=O)c1c(N)sc2c1CCC2`, the IC50 (Coagulation factor XII) was > 50 µM (inactive).

With `Cc1nc(-c2ccc(Cl)cc2)sc1C(=O)CBr` the EC50 [3] was 70.2 µM (active).

With `CSc1nc(S(=O)(=O)c2ccc(C)cc2)c(Cl)s1` the EC50 [3] was > 260 µM (inactive).

With `C=CCOc1ccccc1OC[C@H](O)CNC(C)C` [OXPRENOLOL] the AC50 (Cytochrome P450 2C9) was “inconclusive” and the AC50 (Cytochrome P450 2D6) was 7.94 µM (inconclusive).

For `Cc1cc(C)c2cc(C(=O)N(C)C3CCN(C)CC3)[nH]c2c1`, the EC50 [3] was > 260 µM (inactive).

With `CCN(C(=O)COC(=O)c1c2c(nc3ccccc13)/C(=C/c1ccccc1)CC(C)C2)C1CCS(=O)(=O)C1` (centres undefined) the EC50 [3] was 14.3 µM (active).

In the case of `Cc1nonc1C(=O)N/N=C/c1cccc(O)c1`, the EC50 [1] is reported as 4.56 µM (active) and the EC50 [2] is reported as 13.5 µM (active).

In the case of `CC(C)CCCCCCN=C(S)Nc1ccc(S(=O)(=O)N2CCOCC2)cc1`, the EC50 [4] is reported as 77 µM (active) and the AC50 (INS1) is reported as 7.7 µM (active).

With `CCOC(=O)CC(NC(=O)C1c2ccccc2Oc2ccccc21)c1ccccc1Cl` (centres undefined) the EC50 [3] was > 260 µM (inactive).

In the case of `CCOc1ccc(CCNC(=O)c2oc3c(c2C)-c2n[nH]cc2CC3)cc1OCC`, the EC50 [1] is reported as > 112 µM (not active) and the EC50 [2] is reported as > 112 µM (not active).

For `COCCCN(C(=O)Cc1ccc(Cl)c(Cl)c1)c1c(N)n(Cc2ccccc2)c(=O)[nH]c1=O`, the EC50 [1] was > 112 µM (not active) and the EC50 [2] was > 112 µM (not active).

With `O=C(CSC1=NCCN1)Nc1cccc(C(F)(F)F)c1` the EC50 [3] was > 260 µM (inactive).

For `Cc1ccc(C(=O)NCCNc2ccc(Cl)cc2[N+](=O)[O-])o1`, the AC50 (Cytochrome P450 2D6) was 20 µM (inconclusive) and the IC50 (Coagulation factor XII) was > 50 µM (inactive).

In the case of `COc1ccc2c(c1)CCc1sc(NC(=O)c3ccc(C)cc3)nc1-2`, the IC50 (Coagulation factor XII) is reported as > 50 µM (inactive).

With `CCCc1noc2c1C(c1ccoc1)C(C#N)=C(N)N2` (centres undefined) the EC50 [1] was > 112 µM (not active), the EC50 [2] was > 112 µM (not active) and the AC50 [5] was 157 µM (active). The EC50 (Protein RecA) was 1.06 µM (active).

In the case of `CC/C(=N\NC(=O)Nc1ccccc1)c1ccccc1`, the EC50 [1] is reported as > 112 µM (not active) and the EC50 [2] is reported as > 112 µM (not active).
